{
  "source": "patent US11090355B2",
  "about": "“Compositions and methods for the treatment of neurodamage” (BIOINCEPT, LLC, priority 2015, dated 2021)",
  "key": {"[1]": {"molecular_target": "PDI (Homo sapiens, UniProt P07237)", "sequence (P07237 18-508, species assumed)": "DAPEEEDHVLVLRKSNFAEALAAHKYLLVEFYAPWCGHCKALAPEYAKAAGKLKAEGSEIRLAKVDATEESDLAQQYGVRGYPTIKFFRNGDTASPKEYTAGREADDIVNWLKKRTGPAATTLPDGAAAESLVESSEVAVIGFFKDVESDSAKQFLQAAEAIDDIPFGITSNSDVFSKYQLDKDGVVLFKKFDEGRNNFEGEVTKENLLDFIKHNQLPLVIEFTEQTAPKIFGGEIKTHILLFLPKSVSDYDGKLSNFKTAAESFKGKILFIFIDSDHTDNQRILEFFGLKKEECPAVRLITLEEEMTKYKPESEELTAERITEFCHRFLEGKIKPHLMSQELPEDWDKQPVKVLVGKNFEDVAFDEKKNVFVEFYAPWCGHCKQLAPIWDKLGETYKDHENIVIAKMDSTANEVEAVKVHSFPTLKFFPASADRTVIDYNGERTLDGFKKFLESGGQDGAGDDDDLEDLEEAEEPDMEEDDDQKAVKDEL", "experiment": "binding to PDI, sPIF compared to scrambled PIF", "text": "(FIG. 2). […] (FIG. 3). […] (FIG. 4). […] Thus dependent on the target Kv1.3 or IDE the mutated PIF-1 can have a target-specific effect which can also translate to diverse biological activity."}, "[2]": {"system": "EAE", "experiment": "PLP139-151 induced EAE, episodic treatment, paralysis scores", "settings": "for MCE (mean clinical score at end) / MCS (mean clinical score) / PP (mean peak paralysis score): short term"}},
  "note": "Marks after values point to notes of the source that are not given here.",
  "data": [
    {"substance": "GRVDPSNKSMPKDIA (scrPIF-1 (15)) [scrambled PIF]", "values": [
      {"measurement": "interaction with PDI target", "setting": "[1]", "value": "greatly reduced"}
    ]},
    {"substance": "Glatiramer acetate [GA]", "values": [
      {"measurement": "total recovery from paraplegia (stage 4/5)", "setting": "[2]; episodic treatment", "value": 12.5, "unit": "%"},
      {"measurement": "mice disease free at the end of the study", "setting": "[2]; long-term, day 50", "value": "1/9"},
      {"measurement": "mice that died", "setting": "[2]; long-term, day 50", "value": "three"},
      {"measurement": "mice that died", "setting": "[2]; medium term", "value": "one"},
      {"measurement": "paralysis score", "setting": "[2]; medium term", "value": "increased"},
      {"measurement": "mice with paralysis reversed / disease free", "setting": "[2]; medium term, day 41", "value": "1/7"},
      {"measurement": "mice free of paralysis at the end of the first remission", "setting": "[2]; short term study", "value": "none"},
      {"measurement": "MCE (mean clinical score at end)", "setting": "[2]; Experiment 1", "value": "1.3 +/− 0.4"},
      {"measurement": "MCS (mean clinical score)", "setting": "[2]; Experiment 1", "value": "1.58 +/− 0.15"},
      {"measurement": "PP (mean peak paralysis score)", "setting": "[2]; Experiment 1", "value": "2.4 +/− 0.4"},
      {"measurement": "MCE (mean clinical score at end)", "setting": "[2]; Experiment 2", "value": "0.8 +/− 0.2*"},
      {"measurement": "MCS (mean clinical score)", "setting": "[2]; Experiment 2", "value": "1.4 +/− 0.27"},
      {"measurement": "PP (mean peak paralysis score)", "setting": "[2]; Experiment 2", "value": "2.5 +/− 0.4"}
    ]}
  ]
}
